# Where two headings read alike, the source gives them in different places.
# Key:
# [1] = tested on: Breast cancer cell line MCF-7; test: MTT antiproliferative assay, MCF-7; assay type: cell-based, human; conditions: MCF-7, mean of four parallel experiments, read-out: IC50 (µM) ± SD MCF-7
# Experimental: (§1) Breast cancer cell line MCF-7 (ATCC®® HTB-22) and the drug-resistant subline of the human breast cancer MCF-7 (ECACC 86012803; KCR) were purchased from LGC Promochem (Teddington, UK). Both cell lines were cultured in Eagle’s Minimal Essential Medium (EMEM, containing 4.5 g/L glucose) supplemented with a non-essential amino acid mixture, a selection of vitamins, and 10% heat-inactivated fetal bovine serum. In every third passage, 0.56 µg/mL doxorubicin was added to the medium in order to maintain the ABCB1 (P-glycoprotein) expression in KCR cells. A2780 human ovarian cancer cell line (ECACC European Collection of Authentical Cell Culture, Sigma Cat. no. 93112519) and the cisplatin-resistant human ovarian cancer cell line A2780cis (ECACC European Collection of Authentical Cell Culture, Sigma Cat. no. 93112517) were purchased from Merck KGaA (Darmstadt, Germany). The human ovarian cancer cell lines were cultured in RPMI 1640 medium supplemented with 10% heat-inactivated fetal bovine serum. The RPMI 1640 medium of the cisplatin-resistant cell line A2780 was supplemented with 1 µM cisplatin. HeLa (ATCC® CCL-2™) human cervix carcinoma, HTB-26 breast adenocarcinoma, T-47D (ATCC® HTB-133™) ductal carcinoma, and MRC-5 human embryonal lung fibroblast cell lines (ATCC® CCL-171) were purchased from LGC Promochem (Teddington, UK). The cells were cultured in Eagle’s Minimal Essential Medium (EMEM, containing 4.5 g/L glucose) supplemented with a non-essential amino acid mixture, a selection of vitamins, and 10% heat-inactivated fetal bovine serum. HTB-26 cell line was cultured in RPMI 1640 medium supplemented with 10% heat-inactivated fetal bovine serum. T-47D cells were cultured in RPMI 1640 medium supplemented with 10% heat-inactivated fetal bovine serum, 2 mM L-glutamine, 1 mM Na-pyruvate, and 100 mM Hepes. All of the cells were incubated at 37 °C, in a 5% CO2, 95% air atmosphere.
# (§2) The antiproliferative effect of the compounds was determined on the human breast (MCF-7, KCR, T-47D, HTB-26), cervical (HeLa), and ovarian (A2780, A2780cis) cancer cells, and on MRC-5 (human embryonic lung fibroblast) cell line. The adherent cells were cultured in 96-well flat-bottomed microtiter plates, using EMEM supplemented with 10% heat-inactivated fetal bovine serum or RPMI 1640 supplemented with 10% heat-inactivated fetal bovine serum, respectively. The density of the cells was adjusted to 6 × 10^3 cells in 100 μL per well, the cells were seeded for 24 h at 37 °C, 5% CO2, then the medium was removed from the plates and fresh medium (100 μL per well) was added to the cells. The effects of increasing concentrations of compounds on cell proliferation were tested in 96-well flat-bottomed microtiter plates. The compounds were diluted in the appropriate medium, the dilutions of compounds were performed in separate plates and then added to the cells. The starting concentration of the compounds was 100 μM, and two-fold serial dilution was performed (concentration range: 100-0.19 μM). The culture plates were incubated at 37 °C for 72 h; at the end of the incubation period, 20 μL of MTT (thiazolyl blue tetrazolium bromide, Sigma) solution (from a stock solution of 5 mg/mL) was added to each well. After incubation at 37 °C for 4 h, 100 μL of sodium dodecyl sulfate (SDS) (Sigma) solution (10% in 0.01 M HCI) were added to each well and the plates were further incubated at 37 °C overnight. Cell growth was determined by measuring the optical density (OD) at 540/630 nm with Multiscan EX ELISA reader (Thermo Labsystems, Cheshire, WA, USA). Mean IC50 values were obtained by best fitting the dose-dependent inhibition curves in GraphPadPrism5 program (GraphPad Software version 5.00 for Windows, San Diego, CA, USA) from four parallel experiments for each cell line. Results are expressed in terms of IC50, defined as the inhibitory dose that reduces the proliferation of the cells exposed to the tested compounds by 50% [14].
# [2] = tested on: HTB-26 breast adenocarcinoma cells; test: MTT antiproliferative assay, HTB-26; assay type: cell-based, human; conditions: HTB-26, mean of four parallel experiments, read-out: IC50 (µM) ± SD HTB-26
# Experimental: as §1, §2
# [3] = tested on: MRC-5 human embryonal lung fibroblast cell line; test: MTT antiproliferative assay, MRC-5 normal cells; assay type: cell-based; conditions: for IC50: MRC-5 normal fibroblasts, mean of four parallel experiments, read-out: IC50 (µM) ± SD MRC-5
# Experimental: as §1, §2
# [4] = tested on: HeLa human cervix carcinoma cells; test: MTT antiproliferative assay, HeLa; assay type: cell-based; conditions: 72 h, mean of four parallel experiments, read-out: IC50 (µM) ± SD HeLa
# Experimental: as §1, §2
# [5] = tested on: KCR, drug-resistant subline of the human breast cancer MCF-7; test: MTT antiproliferative assay, KCR; assay type: cell-based; conditions: mean of four parallel experiments, read-out: IC50 (µM) ± SD KCR
# Experimental: as §1, §2
# [6] = tested on: A2780 human ovarian cancer cell line; test: MTT antiproliferative assay, A2780; assay type: cell-based; conditions: 72 h, A2780, mean of four parallel experiments, read-out: IC50 (µM) ± SD A2780
# Experimental: as §1, §2
# [7] = tested on: cisplatin-resistant human ovarian cancer cell line A2780cis; test: MTT antiproliferative assay, A2780cis; assay type: cell-based; conditions: 72 h, mean of four parallel experiments, read-out: IC50 (µM) ± SD A2780cis
# Experimental: as §1, §2
# [8] = tested on: T-47D ductal carcinoma cells; test: MTT antiproliferative assay, T-47D; assay type: cell-based, human; conditions: 72 h, mean of four parallel experiments, read-out: IC50 (µM) ± SD T-47D
# Experimental: as §1, §2
# [9] = tested on: HeLa, HTB-26, T-47D, A2780, A2780cis, MCF-7, KCR and MRC-5 cell lines; test: MTT antiproliferative assay, all cell lines investigated (overall statements); assay type: cell-based, human; conditions: 72 h, all cell lines tested
# Experimental: Breast cancer cell line MCF-7 (ATCC®® HTB-22) and the drug-resistant subline of the human breast cancer MCF-7 (ECACC 86012803; KCR) were purchased from LGC Promochem (Teddington, UK). Both cell lines were cultured in Eagle’s Minimal Essential Medium (EMEM, containing 4.5 g/L glucose) supplemented with a non-essential amino acid mixture, a selection of vitamins, and 10% heat-inactivated fetal bovine serum. In every third passage, 0.56 µg/mL doxorubicin was added to the medium in order to maintain the ABCB1 (P-glycoprotein) expression in KCR cells. A2780 human ovarian cancer cell line (ECACC European Collection of Authentical Cell Culture, Sigma Cat. no. 93112519) and the cisplatin-resistant human ovarian cancer cell line A2780cis (ECACC European Collection of Authentical Cell Culture, Sigma Cat. no. 93112517) were purchased from Merck KGaA (Darmstadt, Germany). The human ovarian cancer cell lines were cultured in RPMI 1640 medium supplemented with 10% heat-inactivated fetal bovine serum. […]
# The antiproliferative effect of the compounds was determined on the human breast (MCF-7, KCR, T-47D, HTB-26), cervical (HeLa), and ovarian (A2780, A2780cis) cancer cells, and on MRC-5 (human embryonic lung fibroblast) cell line. […] Cell growth was determined by measuring the optical density (OD) at 540/630 nm with Multiscan EX ELISA reader (Thermo Labsystems, Cheshire, WA, USA). […]
# Zymoseptoria tritici = tested on: Zymoseptoria tritici; set-up: method as in PMID 28484977; conditions: cited from earlier work
# [10] = tested on: hepatitis C (HCV) replication; set-up: method as in PMID 30842319; conditions: cited from earlier work
Compound,"IC50 ([1]; Homo sapiens, MCF7, 72 h) [µM]","IC50 ([2]; Homo sapiens, HTB26, 72 h) [µM]","selectivity: effect on MRC-5 normal lung fibroblasts compared to cancer cell lines (in words) ([3]; 72 h, MRC-5 versus cancer cell lines)","IC50 ([3]; Homo sapiens, MRC5, 72 h) [µM]",IC50 ([4]; Homo sapiens) [µM],"IC50 ([5]; Homo sapiens, MCF7, 72 h) [µM]",IC50 ([6]; Homo sapiens) [µM],IC50 ([7]; Homo sapiens) [µM],"IC50 ([8]; Homo sapiens, T47D) [µM]",IC50 [7] [µM],IC50 ([1]; 72 h) [µM],antiproliferative activity across the cell lines investigated (in words) [9],in vitro antifungal activity against Zymoseptoria tritici (in words) (Zymoseptoria tritici),IC50 ([2]; 72 h) [µM],IC50 ([3]; 72 h) [µM],IC50 [4] [µM],IC50 ([5]; 72 h) [µM],IC50 [6] [µM],IC50 [8] [µM],inhibition of hepatitis C (HCV) replication (in words) [10]
"C=Cc1cc(O)c(CO)c2c1-c1ccc(O)c(C)c1CC2 [Compound 1, maritin A]",34.7 ± 3,48.7 ± 1.6,less antiproliferative effect on MRC-5 normal lung fibroblasts compared to the other cancer cell lines,75.4 ± 1.8,57 ± 1.3,57.6 ± 0.7,21.5 ± 0.4,40.1 ± 0.4,12.8 ± 0.9,,,,,,,,,,,
"C=Cc1c(C)ccc2c1CCc1c-2ccc(O)c1C [Compound 2, maritin B]",97 ± 0.3,> 100,,> 100,11 ± 0.9,> 100,> 100,> 100,> 100,,,,,,,,,,,
"Cc1c(O)cc2ccc3c(C)c(O)cc4c3c2c1C(O)C4 (stereo not drawn) [Compound 3, maritin C]",,35.9 ± 1.5,,15 ± 0.2,43.2 ± 0.7,> 100,23.7 ± 0.1,< 20,17 ± 0.6,18.6 ± 0.1,,,,,,,,,,
"C=Cc1cc(O)cc2c1-c1ccc(Oc3cc4c(c(C)c3O)CCc3cc(O)cc(C=C)c3-4)c(C)c1CC2 [Compound 4, maritin D]",< 20,25.1 ± 0.3,,17.1 ± 3.1,22.5 ± 1.2,16.2 ± 0.6,14.1 ± 1.3,< 20,9.1 ± 0.4,13.3 ± 0.1,14.2 ± 0.3,substantial antiproliferative activity against all cell lines investigated,,,,,,,,
"C=Cc1c(C)c(O)cc2c1-c1ccc(O)c(C)c1CC2 [Compound 5, juncusol]",,,,,0.5,,,,25 ± 0.4,,,,,,,,,,,
"C=Cc1cc(O)cc2c1-c1ccc(O)c(C)c1CC2 [Compound 6, effusol]",,57 ± 2.73,,,2.3 ± 0.7,,,,,,,,significant in vitro antifungal activity,,,,,,,
"Cc1c(O)ccc2c1CCc1cc(O)cc(C=O)c1-2 [Compound 7, 2,7-dihydroxy-1-methyl-5-aldehyde-9,10-dihydrophenanthrene]",38 ± 2,85.3 ± 4.5,,71.1 ± 1.3,24.7 ± 0.5,70.6 ± 3.1,30 ± 3.6,32.3 ± 2.3,26.6 ± 1.1,,,,,,,,,,,
"C=Cc1cc(O)c(C)c2c1-c1ccc(O)c(C)c1CC2 [Compound 8, 2,7-dihydroxy-1,8-dimethyl-5-vinyl-9,10-dihydrophenanthrene]",69.5 ± 1.7,> 100,,> 100,> 100,> 100,> 100,> 100,57 ± 7.1,,,,,,,,,,,
"C=Cc1cc(C)cc2c1-c1ccc(O)c(C)c1CC2 [Compound 9, juncunol]",45.7 ± 2.4,75 ± 5,,78.4 ± 3.7,76.7 ± 1.8,68.4 ± 2.5,43.5 ± 1.1,52.8 ± 2.4,41.4 ± 5.8,,,,,,,,,,,
"C=Cc1cc(O)cc2c1-c1cc(-c3cc4c(c(C)c3O)CCc3cc(O)cc(C=C)c3-4)c(O)c(C)c1CC2 [Compound 11, effususin A]",< 20,24.7 ± 2.1,,20.1 ± 1.6,25.2 ± 0.6,19.6 ± 0.9,25.6 ± 2.4,< 20,6.2 ± 0.1,16.3 ± 0.3,,substantial antiproliferative activity against all cell lines investigated,,,,,,,,
"N.N.[Cl][Pt][Cl] [cisplatin, reference compound]",,,,,,,,,,7.3 ± 0.2,0.9,,,20.1 ± 2.3,0.6,2.3 ± 0.1,6.5 ± 0.3,3.6 ± 0.3,5.9 ± 0.1,
C=Cc1c(C)c(O)cc2ccc3c(C)c(O)ccc3c12 [dehydrojuncusol],,,,,,,,,,,,,,,,,,,,novel inhibitor of hepatitis C (HCV) replication
